Experiments:
barnyardgrass [1] = experiment: Test C preemergence; assay type: in vivo, Echinochloa crusgalli; settings: 0 to 100 scale (0 no effect, 100 complete control)
Method in brief: (§1)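 Visual injury ratings on a 0–100 scale (100 = complete control) were made against untreated controls 10 days after treatment in the greenhouse. Compounds, formulated with surfactant in non-phytotoxic solvent, were sprayed on soil preemergence or onto one- to two-leaf plants 2–10 cm tall postemergence.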

blackgrass [2] = experiment: Test C preemergence; assay type: in vivo, Alopecurus myosuroides; settings: 0 to 100 scale (0 no effect, 100 complete control)
Method in brief: as §1

corn [3] = experiment: Test C preemergence; assay type: in vivo, Zea mays; settings: 0 to 100 scale (0 no effect, 100 complete control)
Method in brief: as §1

green foxtail = experiment: Test C preemergence; assay type: in vivo, Setaria viridis; settings: 0 to 100 scale (0 no effect, 100 complete control)
Method in brief: as §1

kochia [4] = experiment: Test C preemergence; assay type: in vivo, Bassia scoparia; settings: 0 to 100 scale (0 no effect, 100 complete control)
Method in brief: as §1

oat, wild [5] = experiment: Test C preemergence; assay type: in vivo, Avena fatua; settings: 0 to 100 scale (0 no effect, 100 complete control)
Method in brief: as §1

pigweed, palmer [6] = experiment: Test C preemergence; assay type: in vivo, Amaranthus palmeri; settings: 0 to 100 scale (0 no effect, 100 complete control)
Method in brief: as §1

ragweed [7] = experiment: Test C preemergence; assay type: in vivo, Ambrosia artemisiifolia; settings: 0 to 100 scale (0 no effect, 100 complete control)
Method in brief: as §1

ryegrass, Italian [8] = experiment: Test C preemergence; assay type: in vivo, Lolium multiflorum; settings: 0 to 100 scale (0 no effect, 100 complete control)
Method in brief: as §1

soybean [9] = experiment: Test C preemergence; assay type: in vivo, Glycine max; settings: 0 to 100 scale (0 no effect, 100 complete control)
Method in brief: as §1

wheat [10] = experiment: Test C preemergence; assay type: in vivo, Triticum aestivum; settings: 0 to 100 scale (0 no effect, 100 complete control)
Method in brief: as §1

barnyardgrass [11] = experiment: Test C postemergence; assay type: in vivo, Echinochloa crusgalli; settings: 10 days
Method in brief: as §1

blackgrass [12] = experiment: Test C postemergence; assay type: in vivo, Alopecurus myosuroides; settings: 10 days
Method in brief: as §1

corn [13] = experiment: Test C postemergence; assay type: in vivo, Zea mays; settings: 10 days
Method in brief: as §1

kochia [14] = experiment: Test C postemergence; assay type: in vivo, Bassia scoparia; settings: 10 days
Method in brief: as §1

oat, wild [15] = experiment: Test C postemergence; assay type: in vivo, Avena fatua; settings: 10 days
Method in brief: as §1

pigweed, palmer [16] = experiment: Test C postemergence; assay type: in vivo, Amaranthus palmeri; settings: Postemergence, 500 g ai/ha, 10 days, visual 0 to 100 scale (0 no effect, 100 complete control)
Method in brief: as §1

ragweed [17] = experiment: Test C postemergence; assay type: in vivo, Ambrosia artemisiifolia; settings: 10 days
Method in brief: as §1

ryegrass, Italian [18] = experiment: Test C postemergence; assay type: in vivo, Lolium multiflorum; settings: 10 days
Method in brief: as §1

soybean [19] = experiment: Test C postemergence; assay type: in vivo, Glycine max; settings: 10 days
Method in brief: as §1

wheat [20] = experiment: Test C postemergence; assay type: in vivo, Triticum aestivum; settings: 10 days
Method in brief: as §1

galium = experiment: Test C postemergence; assay type: in vivo, Galium aparine; settings: 10 days
Method in brief: as §1

horseweed = experiment: Test C postemergence; assay type: in vivo, Erigeron canadensis; settings: 10 days
Method in brief: as §1

barnyardgrass [21] = experiment: Test D flooded paddy test; assay type: in vivo, Echinochloa crus-galli; settings: 250 g ai/ha, applied to paddy water, visual rating after 13 to 14 days, scale 0 to 100 (0 no effect, 100 complete control)
Description: (§2) Plant species in the flooded paddy test selected from barnyardgrass (Echinochloa crus-galli), ducksalad (Heteranthera limosa), rice (Oryza sativa), and sedge, umbrella (small-flower umbrella sedge, Cyperus difformis) were grown to the 2-leaf stage for testing. At time of treatment, test pots were flooded to 3 cm above the soil surface, treated by application of test compounds directly to the paddy water, and then maintained at that water depth for the duration of the test. Treated plants and controls were maintained in a greenhouse for 13 to 14 days, after which time all species were compared to controls and visually evaluated. Plant response ratings, summarized in Table D, are based on a scale of 0 to 100 where 0 is no effect and 100 is complete control. A dash (-) response means no test result.

ducksalad = experiment: Test D flooded paddy test; assay type: in vivo, Heteranthera limosa; settings: 250 g ai/ha, applied to paddy water, visual rating after 13 to 14 days, scale 0 to 100 (0 no effect, 100 complete control)
Description: as §2

rice = experiment: Test D flooded paddy test; assay type: in vivo, Oryza sativa; settings: 250 g ai/ha, applied to paddy water, visual rating after 13 to 14 days, scale 0 to 100 (0 no effect, 100 complete control)
Description: as §2

sedge, umbrella = experiment: Test D flooded paddy test; assay type: in vivo, Cyperus difformis; settings: 250 g ai/ha, applied to paddy water, visual rating after 13 to 14 days, scale 0 to 100 (0 no effect, 100 complete control)
Description: as §2

[22] = Preemergence, 500 g ai/ha, visual rating after 10 days
[23] = Test C, preemergence, 125 g ai/ha
[24] = 125 g ai/ha, postemergence, 0 to 100 scale, 0 no effect, 100 complete control
[25] = Postemergence, 500 g ai/ha, visual 0 to 100 scale (0 no effect, 100 complete control)

COC[C@H]1CN(C(=O)c2cccc(-n3cnc(C(C)(C)O)n3)c2)c2cccc(Cl)c2O1 [Compound 253]
Plant response rating, Barnyardgrass (barnyardgrass [1]; [22]): 60 | Barnyardgrass plant response rating (barnyardgrass [1]; [23]): 50 | Plant response rating, Blackgrass (blackgrass [2]; [22]): 50 | Blackgrass plant response rating (blackgrass [2]; [23]): 20 | Plant response rating, Corn (corn [3]; [22]): 10 | Corn plant response rating (corn [3]; [23]): 0 | Plant response rating, Foxtail, Green (green foxtail; [22]): 100 | Foxtail, Green plant response rating (green foxtail; [23]): 80 | Plant response rating, Kochia (kochia [4]; [22]): 80 | Kochia plant response rating (kochia [4]; [23]): 60 | Plant response rating, Oat, Wild (oat, wild [5]; [22]): 90 | Oat, Wild plant response rating (oat, wild [5]; [23]): 30 | Plant response rating, Pigweed, Palmer (pigweed, palmer [6]; [22]): 100 | Pigweed, Palmer plant response rating (pigweed, palmer [6]; [23]): 90 | Plant response rating, Ragweed (ragweed [7]; [22]): 80 | Ragweed plant response rating (ragweed [7]; [23]): 20 | Plant response rating, Ryegrass, Italian (ryegrass, Italian [8]; [22]): 60 | Ryegrass, Italian plant response rating (ryegrass, Italian [8]; [23]): 40 | Plant response rating, Soybean (soybean [9]; [22]): 80 | Soybean plant response rating (soybean [9]; [23]): 40 | Plant response rating, Wheat (wheat [10]; [22]): 50 | Wheat plant response rating (wheat [10]; [23]): 0 | Plant response rating, Barnyardgrass (barnyardgrass [11]; [24]): 20 | Plant response rating, Barnyardgrass (barnyardgrass [11]; [25]): 30 | Plant response rating, Blackgrass (blackgrass [12]; [24]): 40 | Plant response rating, Blackgrass (blackgrass [12]; [25]): 80 | Plant response rating, Corn (corn [13]; [24]): 20 | Plant response rating, Corn (corn [13]; [25]): 80 | Plant response rating, Kochia (kochia [14]; [24]): 80 | Plant response rating, Kochia (kochia [14]; [25]): 80 | Plant response rating, Oat, Wild (oat, wild [15]; [24]): 50 | Plant response rating, Oat, Wild (oat, wild [15]; [25]): 90 | Plant response rating, Pigweed, Palmer (pigweed, palmer [16]): 70 | Plant response rating, Ragweed (ragweed [17]; [24]): 70 | Plant response rating, Ragweed (ragweed [17]; [25]): 70 | Plant response rating, Ryegrass, Italian (ryegrass, Italian [18]; [24]): 50 | Plant response rating, Ryegrass, Italian (ryegrass, Italian [18]; [25]): 50 | Plant response rating, Soybean (soybean [19]; [24]): 100 | Plant response rating, Soybean (soybean [19]; [25]): 100 | Plant response rating, Wheat (wheat [20]; [24]): 20 | Plant response rating, Wheat (wheat [20]; [25]): 70 | Plant response rating, Galium (galium; [24]): 100 | Plant response rating, Galium (galium; [25]): 100 | Plant response rating, Horseweed (horseweed; [24]): 0 | Plant response rating, Horseweed (horseweed; [25]): 20 | Plant response rating, Barnyardgrass (Flood) (barnyardgrass [21]): 0 | Plant response rating, Ducksalad (Flood) (ducksalad): 85 | Plant response rating, Rice (Flood) (rice): 10 | Plant response rating, Sedge, Umbrella (Flood) (sedge, umbrella): 70

From US20260262643A1, “HERBICIDAL BENZOXAZINES” (FMC CORPORATION, priority 2022, published 2026)
